For 63 compounds, IC50 results are on record in patent US12226425B2, “Inhibitors of ARG1 and/or ARG2” (Arcus Biosciences, Inc., priority 2018, dated 2025).

Broadly, the IC50 is the midpoint of a concentration-inhibition curve.

The target of this experiment is T1, recombinant human ARG1 (Homo sapiens, UniProt P05089).
T1 sequence (P05089 1-322): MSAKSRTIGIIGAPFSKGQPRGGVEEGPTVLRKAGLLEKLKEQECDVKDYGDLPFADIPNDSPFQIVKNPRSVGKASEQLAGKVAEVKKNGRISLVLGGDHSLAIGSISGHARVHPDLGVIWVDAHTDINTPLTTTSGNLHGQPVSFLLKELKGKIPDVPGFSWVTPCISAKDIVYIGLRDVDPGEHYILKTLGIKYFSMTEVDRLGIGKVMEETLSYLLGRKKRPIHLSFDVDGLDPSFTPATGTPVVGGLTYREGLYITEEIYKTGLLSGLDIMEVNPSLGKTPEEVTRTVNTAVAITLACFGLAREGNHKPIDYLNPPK
The experiment can be described thus: Arginase coupled enzymatic assay using recombinant human ARG1. In kind it is biochemical. Conditions: 2 nM ARG1, 0.8 mM L-Arginine, 10 mM sodium phosphate pH 7.4, 0.1 mM MnCl2, 37° C., absorption at 570 nm; read-out: hARG1 potency (IC50). As to the method: Purified recombinant human ARG1 and ARG2 were prepared in 50 mM Bicine, pH 8.5, 100 μM MnCl2, 20% glycerol and 1mM DTT at a final stock concentration of 14.4 μM and 7.56 μM respectively. 2.5 nM of either ARG1 or ARG2 were incubated with varying concentrations of compounds in 10 mM sodium phosphate, pH 7.4, 0.1 mM MnCl2 and 2.5% DMSO in a total volume of 40 μl in a 384-well microplate (Corning™ #3640) at 37° C. for 1 h. The arginase enzymatic reaction was initiated by addition of 10 μl of 4 mM L-Arginine pre-incubated in 10 mM sodium phosphate, pH 7.4, and 0.1 mM MnCl2 at 37° C. into the enzyme and compound mixture, giving the final reaction conditions: 2 nM of ARG1 or ARG2 and 0.8 mM of L-Arginine in 10 mM sodium phosphate, pH 7.4, 0.1 mM MnCl2 and 2% DMSO with varying concentrations of compounds. Following 2 h incubation at 37° C., the arginase enzymatic reaction was stopped by transfer of 10 μl of reaction into 10 μl of detection mix (204 μM Amino-2-Borono-6-Hexanoic Acid, 0.25 μl Arginase Enzyme mix, 0.25 μl Arginase Developer, 0.25 μl Arginase Converter Enzyme in Arginase Assay Buffer from Arginase Activity Colorimetric Assay Kit, BioVision Inc. #K755-100) in a transparent 384-well microplate (Greiner #781801). The plate was immediately put into a plate reader (Synergy™ Neo2 Multi-Mode Microplate Reader) to monitor absorption at 570 nm at 37° C. Absorption values at 12˜20 min were used to calculate compound potency. The value of the DMSO blank (MIN inhibition=100% activity) was used as a negative control. The positive control was established by adding 8 μl of enzyme and DMSO mix into 10 μl of detection mix followed by addition of 2 μl of L-Arginine (MAX inhibition=0% activity). To calculate the percent activity, Equation 1 was used. Abs570nm is the value at a given compound concentration:
A counter-screen was performed to identify any inhibition of the coupling enzymes by the test compounds. 10 μl of 0.26 mM of urea with varying concentrations of compounds in 10 mM sodium phosphate, pH 7.4, 0.1 mM MnCl2 and 2% DMSO were added into 10 μl of detection mix in place of the arginase enzymatic reaction mix. Absorption was monitored at 570 nm as described above. The values of a no substrate blank (without urea; MAX inhibition=0% activity) and a DMSO blank (MIN inhibition=100% activity) were used as positive and negative controls respectively. […] Inactivity in the counter-screen was used to confirm that results accurately reflected IC50 values for ARG1 and ARG2.
In the case of `Cc1ccc2c(c1)[C@@](N)(C(=O)O)[C@@H](CCCB(O)O)C2`, the IC50 was greater than 1000 nM.

With `C[C@]1(CCCB(O)O)Cc2ccccc2[C@@]1(N)C(=O)O`, the concentration for half-maximal inhibition (IC50) is greater than 1000 nM.

`COc1ccc2c(c1)[C@@](N)(C(=O)O)[C@@H](CCCB(O)O)C2`: the IC50 was 100 to 1000 nM.

For `CN[C@@]1(C(=O)O)c2ccccc2C[C@@H]1CCCB(O)O`, the IC50 lay within 100 to 1000 nM.

On to `NCc1ccc2c(c1)[C@@](N)(C(=O)O)[C@@H](CCCB(O)O)C2`, for which the IC50 was less than 100 nM.

With `N[C@@]1(C(=O)O)c2cc(Cl)ccc2C[C@@H]1CCCB(O)O`, the IC50 lay within 100 to 1000 nM.

In the case of `N#Cc1ccc2c(c1)[C@@](N)(C(=O)O)[C@@H](CCCB(O)O)C2`, the IC50 was greater than 1000 nM.

For `NCCc1cccc2c1C[C@H](CCCB(O)O)[C@]2(N)C(=O)O`, the IC50 was in the range of 100 to 1000 nM.

`CN[C@@]1(C(=O)O)c2cccc(CN)c2C[C@@H]1CCCB(O)O`: the IC50 is less than 100 nM.

`Cc1ccc2c(c1)C[C@H](CCCB(O)O)[C@]2(N)C(=O)O`: the IC50 is greater than 1000 nM.

As to `NCc1ccc2c(c1)C[C@H](CCCB(O)O)[C@]2(N)C(=O)O`, the IC50 was less than 100 nM.

As to `CNCc1cccc2c1C[C@H](CCCB(O)O)[C@]2(NC)C(=O)O`, the IC50 lay in the range of 100 to 1000 nM.

Regarding `N[C@@]1(C(=O)O)c2ccccc2C[C@@H]1CCCB(O)O`, the IC50 was 100 to 1000 nM.

Take `CN[C@@]1(C(=O)O)c2ccc(CN)cc2C[C@@H]1CCCB(O)O`: the IC50 is less than 100 nM.

On to `N[C@@]1(C(=O)O)c2ccc(Cl)cc2C[C@@H]1CCCB(O)O`, for which the IC50 fell in the range of 100 to 1000 nM.

In the case of `CN(C)[C@@]1(C(=O)O)c2cc(CN)ccc2C[C@@H]1CCCB(O)O`, the IC50 lay within 100 to 1000 nM.

Turning to `CN[C@@]1(C(=O)O)c2cccc(OC)c2C[C@@H]1CCCB(O)O`, the IC50 is greater than 1000 nM.

Turning to `CN[C@@]1(C(=O)O)c2cc([C@@H](N)C3CC3)c(Cl)cc2C[C@@H]1CCCB(O)O`, the IC50 was less than 100 nM.

Regarding `CN[C@@]1(C(=O)O)c2cc(-c3ccccc3CCN)c(F)cc2C[C@@H]1CCCB(O)O`, the IC50 was less than 100 nM.

On to `CN[C@@]1(C(=O)O)c2cc(-c3ccc(F)cc3CN)c(F)cc2C[C@@H]1CCCB(O)O`, for which the IC50 is less than 100 nM.

As to `CN[C@@]1(C(=O)O)c2cc(CNC3CC3)c(F)cc2C[C@@H]1CCCB(O)O`, the IC50 was less than 100 nM.

For the compound `CN[C@@]1(C(=O)O)c2cc([C@H](N)C3CC3)c(Cl)cc2C[C@@H]1CCCB(O)O`, the IC50 was less than 100 nM.

On to `CN[C@@]1(C(=O)O)c2cc([C@@H](N)C3CC3)c(F)cc2C[C@@H]1CCCB(O)O`, for which the IC50 was less than 100 nM.

Take `CN[C@@]1(C(=O)O)c2cc(CNC3CCCC3)c(F)cc2C[C@@H]1CCCB(O)O`: the IC50 is less than 100 nM.

Regarding `CN[C@@]1(C(=O)O)c2cc(CNC(C)C)c(F)cc2C[C@@H]1CCCB(O)O`, the IC50 is less than 100 nM.

`CN[C@@]1(C(=O)O)c2cc([C@H](N)C(C)C)c(F)cc2C[C@@H]1CCCB(O)O`: the IC50 is less than 100 nM.

With `CN[C@@]1(C(=O)O)c2cc([C@@H](N)C(C)C)c(F)cc2C[C@@H]1CCCB(O)O`, the IC50 is less than 100 nM.

Regarding `CN[C@@]1(C(=O)O)c2cc([C@H](N)C(C)C)c(Cl)cc2C[C@@H]1CCCB(O)O`, the IC50 is less than 100 nM.

Turning to `CN[C@@]1(C(=O)O)c2cc([C@@H](N)C(C)C)c(Cl)cc2C[C@@H]1CCCB(O)O`, the IC50 was less than 100 nM.

With `CN[C@@]1(C(=O)O)c2cc(C3(N)CCC3)c(F)cc2C[C@@H]1CCCB(O)O`, the IC50 was less than 100 nM.

Consider `CN[C@@]1(C(=O)O)c2cc(C3(N)CCC3)c(Cl)cc2C[C@@H]1CCCB(O)O`, for which the IC50 was less than 100 nM.

Take `CN[C@@]1(C(=O)O)c2cc(C3(N)CCC3)ccc2C[C@@H]1CCCB(O)O`: the IC50 is less than 100 nM.

Take `CN[C@@]1(C(=O)O)c2cc(C3(N)CCCCC3)c(F)cc2C[C@@H]1CCCB(O)O`: the IC50 is less than 100 nM.

For `CN[C@@]1(C(=O)O)c2cc([C@H](C)N)ccc2C[C@@H]1CCCB(O)O`, the IC50 was less than 100 nM.

Consider `CN[C@@]1(C(=O)O)c2cc(-c3cccc(F)c3C(C)(C)N)c(F)cc2C[C@@H]1CCCB(O)O`, for which the IC50 was less than 100 nM.

For the compound `CN[C@@]1(C(=O)O)c2cc(C(C)(C)CN)c(F)cc2C[C@@H]1CCCB(O)O`, the IC50 was less than 100 nM.

For the compound `CN[C@@]1(C(=O)O)c2cc(C(C)(C)C(C)(C)N)c(F)cc2C[C@@H]1CCCB(O)O`, the IC50 was less than 100 nM.

As for `CN[C@@]1(C(=O)O)c2cc(O[C@@H]3CCC[C@H]3N)c(F)cc2C[C@@H]1CCCB(O)O`, the IC50 is less than 100 nM.

As to `CN[C@@]1(C(=O)O)c2cc(OCCN)ccc2C[C@@H]1CCCB(O)O`, the IC50 is less than 100 nM.

On to `CN[C@@]1(C(=O)O)c2cc(C3(C(C)(C)N)CCC3)c(F)cc2C[C@@H]1CCCB(O)O`, for which the IC50 was less than 100 nM.

With `CN[C@@]1(C(=O)O)c2cc(CCCN)c(F)cc2C[C@@H]1CCCB(O)O`, the IC50 is less than 100 nM.

Consider `CN[C@@]1(C(=O)O)c2cc(C3(CNC(=O)[C@H](C)N)CCC3)c(F)cc2C[C@@H]1CCCB(O)O`, for which the IC50 was less than 100 nM.

As to `CN[C@@]1(C(=O)O)c2cc([C@H]3CCCN3)c(F)cc2C[C@@H]1CCCB(O)O`, the IC50 was less than 100 nM.

Take `CN[C@@]1(C(=O)O)c2cc([C@@H]3CCCN3)c(F)cc2C[C@@H]1CCCB(O)O`: the IC50 was less than 100 nM.

For the compound `CN[C@@]1(C(=O)O)c2cc(C3(C(N)=O)CCC3)c(F)cc2C[C@@H]1CCCB(O)O`, the IC50 is 100 to 1000 nM.

Regarding `NC1(c2cc3c(cc2F)C[C@H](CCCB(O)O)[C@]3(N)C(=O)O)CCC1`, the IC50 was less than 100 nM.

Turning to `CN[C@@]1(C(=O)O)c2cc(C3(CN)CCC3)c(F)cc2C[C@@H]1CCCB(O)O`, the IC50 was less than 100 nM.

Consider `CN[C@@]1(C(=O)O)c2cc(-c3ccccc3CO)c(F)cc2C[C@@H]1CCCB(O)O`, for which the IC50 lay within 100 to 1000 nM.

For the compound `CN[C@@]1(C(=O)O)c2cc(C3(NC(=O)[C@H](C)N)CCC3)c(F)cc2C[C@@H]1CCCB(O)O`, the IC50 was in the range of 100 to 1000 nM.

For `CN[C@@]1(C(=O)O)c2cc(C3(N)CC3)c(F)cc2C[C@@H]1CCCB(O)O`, the IC50 was less than 100 nM.

Take `CN[C@@]1(C(=O)O)c2cc(C3(N)CCCC3)c(F)cc2C[C@@H]1CCCB(O)O`: the IC50 is less than 100 nM.

As for `CC[C@](C)(N)c1cc2c(cc1F)C[C@H](CCCB(O)O)[C@]2(NC)C(=O)O`, the IC50 was less than 100 nM.

Regarding `CN[C@@]1(C(=O)O)c2cc(C3(N)CC(C)(C)C3)c(F)cc2C[C@@H]1CCCB(O)O`, the IC50 was less than 100 nM.

For `CN[C@@]1(C(=O)O)c2cc([C@H](C)N)c(OCC(F)(F)F)cc2C[C@@H]1CCCB(O)O`, the IC50 is less than 100 nM.

`CC[C@@](C)(N)c1cc2c(cc1F)C[C@H](CCCB(O)O)[C@]2(NC)C(=O)O`: the IC50 is less than 100 nM.

As for `CN[C@@]1(C(=O)O)c2cc([C@H](C)N)c(C)cc2C[C@@H]1CCCB(O)O`, the IC50 is less than 100 nM.

For the compound `CCC(N)(CC)c1cc2c(cc1F)C[C@H](CCCB(O)O)[C@]2(NC)C(=O)O`, the IC50 is less than 100 nM.

As to `CN[C@@]1(C(=O)O)c2cc([C@H](C)N)c(OC)cc2C[C@@H]1CCCB(O)O`, the IC50 was less than 100 nM.

`CN[C@@]1(C(=O)O)c2cc(C3CCNCC3)c(F)cc2C[C@@H]1CCCB(O)O`: the IC50 is less than 100 nM.

Consider `CN[C@@]1(C(=O)O)c2cc(CN3CCCCC3(C)C)c(F)cc2C[C@@H]1CCCB(O)O`, for which the IC50 was less than 100 nM.

In the case of `CN[C@@]1(C(=O)O)c2cc(CN3CCC[C@H]3C(=O)O)c(F)cc2C[C@@H]1CCCB(O)O`, the IC50 lay within 100 to 1000 nM.

As for `CC[C@H](NC)c1cc2c(cc1F)C[C@H](CCCB(O)O)[C@]2(NC)C(=O)O`, the IC50 was less than 100 nM.

With `CC[C@@H](NC)c1cc2c(cc1F)C[C@H](CCCB(O)O)[C@]2(NC)C(=O)O`, the IC50 is less than 100 nM.
